Laboratory results as given in patent US20060019270A1, “Global DNA methylation assessment using bisulfite PCR” (Board of Regents The University of Texas System, priority 2004, published 2006).

Columns and labels:
[1] = test system: Alu element methylation in Hct116 cells; test: Bisulfite Alu PCR and pyrosequencing, Hct116 cells treated with DAC; assay type: cell-based, human
Description: Hct116, RKO and SW48, colon cancer cell lines (American Type Culture Collection, Manassas, Va.), were cultured using standard methods. Cells were treated with 5 μM 5-aza-2′deoxycytidine (DAC) for three days prior to being harvested. DNA from cell lines and peripheral blood leukocytes was extracted using phenol-chloroform extraction methods well known to one with skill on the art.
Bisulfite modification of genomic DNA is known in the art (see Clark et. al, 1994). In brief, 1.5 μg prepared 10 mM hydroquinone (Sigma) and 520 μl of 3M Sodium Bisulfite (Sigma) at pH=5.0 were added and mixed. The samples were overlayed with mineral oil to prevent evaporation and incubated at 50° C. for 16 hours. […] Bisulfite treated DNA was stored at −20° C. until ready for use.
The Alu element PCR reaction was modified for pyrosequencing based methylation analysis. […] The PCR product was purified and quantitated using the PSQ HS 96 Pyrosequencing System (Pyrosequencing, Inc.; Westborough, Mass.). […]
Bisulfite Alu PCR products could also be analyzed by pyrosequencing allowing for a rapid analysis of multiple CpG sites. […] This method has the advantage of analyzing several methylation sites, is not restricted to restriction enzyme sites, avoids sequencing multiple clones, and allows accurate quantitation of multiple CpG methylation sites in the same reaction. […]

[2] = test system: LINE-1 methylation in Hct116, RKO and SW48 cell lines; test: LINE-1 methylation assay in cell lines treated with DAC (FIG. 14); assay type: cell-based, human; conditions: compared with untreated
Description: Hct116, RKO and SW48 cell lines were treated with 5-aza-2′deoxycytidine (DAC). The genomic DNA was treated with sodium bisulfite and a non-specific PCR was performed which amplified a pool of LINE-1 repetitive elements. The PCR product was then digested with HinfI, which only cuts repetitive elements that were originally methylated. The LINE-1 PCR assays the methylation of two sites and therefore HinfI can generate five possible digestion products of 285, 247, 166, 128 and 38 bp (not seen). The digested PCR product was separated by polyacrylamide gel electrophoresis and stained with ethidium bromide. The PCR bands were quantitated and the amount of methylation is shown below each gel lane.
Methylation of the L1 promotor was investigated by COBRA assay (Xiong and Laird, 1997), and bisulfite treatment was performed as described above. A […] PCR was carried out in 60 mM Tris-HCl pH=8.8, 15 mM Ammonium Sulfate, 0.5 mM MgCl2, 1 mM dNTP mix, and 1 unit of Taq polymerase. PCR cycling conditions were 95° C. for 30 seconds, 50° C. for 30 seconds, and 72° C. for 30 seconds for 28 cycles. […] Gels were stained with ethidium bromide, imaged, and quantitated in a Bio-Rad Geldoc 2000 imager (Bio-Rad, Hercules, Calif.). […]

Nc1ncn([C@H]2C[C@H](O)[C@@H](CO)O2)c(=O)n1 [decitabine, 5-aza-2′-deoxycytidine]
Alu methylation after DAC as percent of potential methylation sites ([1]; pyrosequencing, untreated about 87%): 62%
Alu methylation by pyrosequencing after DAC treatment (average of three CpG sites) ([1]; untreated 20.2%, SssI maximum 23.2%): 14.5%
LINE-1 methylation in DAC treated cell lines [2]: lower degree of methylation
